Measurements taken from patent US20230382915A1, “GCN2 AND PERK KINASE INHIBITORS AND METHODS OF USE THEREOF” (Deciphera Pharmaceuticals, LLC, priority 2021, published 2023).

How the values were obtained:
GCN2 kinase = GCN2 kinase (Homo sapiens (Human), UniProt Q9P2K8); assay: Biochemical assay for GCN2 (TR-FRET kinase activity); conditions: 1 mM ATP
Procedure: Activity of GCN2 kinase was determined using a TR-FRET kinase activity assay (e.g. Riddle et al. Analytical Biochemistry (2006) 356(1) 108-116). Assays were conducted in 384-well plates (13 μL assay volume) using 2 nM GCN2 (Carna Biosciences), 130 nM GFP-EIf2α (Invitrogen), 0.2 mg/mL E. coli tRNA (sigma) and 1 mM ATP in kinase buffer (Invitrogen). Inhibition of GCN2 was measured by adding serial diluted test compound (final assay concentration of 0.5% DMSO) followed by a 3-hour incubation. Tb-peIF2α (pSer52) antibody (Invitrogen) (2 nM final assay concentration) in kinase buffer containing EDTA (final assay concentration of 20 mM) was added. After a 60 min incubation at room temperature, TR-FRET was monitored using an excitation wavelength of 340 nm and emission wavelengths of 490 nm and 520 nm. The emission ratio (520/490) at each compound concentration of was converted to percent inhibition using controls (i.e., reaction with no test compound and reaction with a known inhibitor) and IC50 values were calculated by fitting a four-parameter sigmoidal curve to the data using Prism (GraphPad software).

PERK enzyme = PERK enzyme (Homo sapiens (Human), UniProt Q9NZJ5); assay: Biochemical assay for PERK (coupled pyruvate kinase/lactate dehydrogenase); conditions: 1 mM ATP
Procedure: Activity of PERK kinase was determined spectroscopically using a coupled pyruvate kinase/lactate dehydrogenase assay that continuously monitors the ATP hydrolysis-dependent oxidation of NADH (e.g., Schindler et al. Science (2000) 289: 1938-1942). Assays were conducted in 384-well plates ([…] final volume) using 10 nM PERK (from Beryllium), 0.25 mg/mL Myelin Basic Protein substrate, 1.5 units pyruvate kinase, 2.1 units lactate dehydrogenase, 1 mM phosphoenol pyruvate, 0.28 mM NADH and 1 mM ATP in assay buffer (100 mM Tris, pH 7.5, 15 mM MgCl2, 0.5 mM DTT, 0.004% (w/v) BSA, and 0.004% Triton X-100). Inhibition of PERK was measured by adding serial diluted test compound (final assay concentration of 1% DMSO). A decrease in absorption at 340 nm was monitored continuously for 6 hours at 30° C. on a multi-mode microplate reader (BioTek). The reaction rate was calculated using the 2-3 h time frame. The reaction rate at each concentration of compound was converted to percent inhibition using controls (i.e., reaction with no test compound and reaction with a known inhibitor) and IC50 values were calculated using software routines in Prism (GraphPad software).

CCRF-CEM leukemia cells = assay: CCRF-CEM ASNase cell proliferation assay; type: cell-based; conditions: Homo sapiens, 1 mU/mL ASNase, 72 h
Procedure: CCRF-CEM leukemia cells (catalog #CCL-116) were obtained from the American Type Culture Collect (ATTC, Manassas, VA). Cells were grown in RPMI-1640 medium supplemented with 10% heat-inactivated fetal bovine serum (Invitrogen, Carlsbad, CA) and 1% Penicillin/Streptomycin/L-Glutamine at 37° C., 5% CO2, and 95% humidity. Cells were expanded until reaching one million cells per mL at which time they are subcultured or harvested for assay use. Ten thousand cells per well in 200 μL RPMI-1640 supplemented with 10% heat-inactivated fetal bovine serum and 1% Penicillin/Streptomycin were dispensed into a 96-well black clear bottom plate. A serial dilution of test compound and 1 mU/mL ASNase was added in triplicate and plates were incubated for 72 h at 37° C., 5% CO2, and 95% humidity. At the end of the incubation, 40 μL of a […] solution of resazurin (Sigma, St. Louis, MO) in PBS was added to each well of the plate and plates were incubated for an additional 6 h at 37° C., 5% CO2, and 95% humidity. Plates were read on a Synergy2 or equivalent reader (Biotek, Winooski VT) using an excitation of 540 nm and an emission of 600 nm. Data was analyzed using GraphPad Prism software (GraphPad, San Diego, CA) to calculate IC50 values.

[1] = test system: ATF4 in thapsigargin stimulated CCRF-CEM cells (PERK); assay: CCRF-CEM thapsigargin (TG) ATF4 ELISA; type: cell-based; conditions: Homo sapiens, 1 μM thapsigargin
Procedure: CCRF-CEM leukemia cells (catalog #CCL-116) were obtained from the American Type Culture Collection (ATTC, Manassas, VA). Briefly, cells were grown in RPMI-1640 medium supplemented with 10% heat-inactivated fetal bovine serum (Invitrogen, Carlsbad, CA) and 1% Penicillin/Streptomycin/L-Glutamine at 37° C., 5% CO2, and 95% humidity. Cells were expanded until reaching one million cells per mL at which time they were subcultured or harvested for assay use. One million five hundred thousand cells per well in 1 mL complete growth medium were dispensed into 12-well plates and incubated overnight. A serial dilution of test compound was added and cells were incubated at 37° C., 5% CO2, and 95% for three hours, then 1 μM thapsigargin was added and cells were incubated for an additional hour at 37° C., 5% CO2, and 95%. Cells were lysed then ATF4 levels were measured using an ELISA assay (Proteintech, Rosemont, IL). Absorbance was measured at 450 nm and 544 nM using a Synergy2 or equivalent reader (Biotek, Winooski VT). Data was analyzed using PRISM software (Graphpad, San Diego, CA) to calculate IC50 values.

[2] = test system: ATF4 in H929 multiple myeloma cells; assay: H929 ATF4 ELISA assay; type: cell-based; conditions: four hours, relative to vehicle treated control
Procedure: H929 multiple myeloma cells (catalog #CRL-9068) were obtained from the American Type Culture Collection (ATTC, Manassas, VA). Briefly, cells were grown in RPMI-1640 medium supplemented with 20% heat-inactivated fetal bovine serum (catalog #A3840002, ThermoFisher Scientific, Waltham, MA), 1% Penicillin/Streptomycin/L-Glutamine (catalog #10378016, ThermoFisher Scientific, Waltham, MA), and 0.05 mM 2-mercaptoethanol (catalog #21985-023, ThermoFisher Scientific, Waltham, MA) at 37° C., 5% CO2, and 95% humidity. Cells were expanded until reaching one million five hundred thousand cells per mL at which time they were sub-cultured or harvested for assay use. One million five hundred thousand cells per well in 1 mL complete growth medium were dispensed into 12-well plates and incubated overnight. A serial dilution of test compound was added, and cells were incubated at 37° C., 5% CO2, and 95% for four hours. Cells were lysed then ATF4 levels were measured using an ELISA assay (Proteintech, Rosemont, IL). Absorbance is measured at 450 nm and 544 nM using a Synergy2 or equivalent reader (Biotek, Winooski VT). Data were analyzed using PRISM software (Graphpad, San Diego, CA) to calculate fold stimulation of cellular ATF4 relative to vehicle treated control.

Sequence of PERK enzyme (Q9NZJ5 other isoform, or with tags, fused parts or gaps): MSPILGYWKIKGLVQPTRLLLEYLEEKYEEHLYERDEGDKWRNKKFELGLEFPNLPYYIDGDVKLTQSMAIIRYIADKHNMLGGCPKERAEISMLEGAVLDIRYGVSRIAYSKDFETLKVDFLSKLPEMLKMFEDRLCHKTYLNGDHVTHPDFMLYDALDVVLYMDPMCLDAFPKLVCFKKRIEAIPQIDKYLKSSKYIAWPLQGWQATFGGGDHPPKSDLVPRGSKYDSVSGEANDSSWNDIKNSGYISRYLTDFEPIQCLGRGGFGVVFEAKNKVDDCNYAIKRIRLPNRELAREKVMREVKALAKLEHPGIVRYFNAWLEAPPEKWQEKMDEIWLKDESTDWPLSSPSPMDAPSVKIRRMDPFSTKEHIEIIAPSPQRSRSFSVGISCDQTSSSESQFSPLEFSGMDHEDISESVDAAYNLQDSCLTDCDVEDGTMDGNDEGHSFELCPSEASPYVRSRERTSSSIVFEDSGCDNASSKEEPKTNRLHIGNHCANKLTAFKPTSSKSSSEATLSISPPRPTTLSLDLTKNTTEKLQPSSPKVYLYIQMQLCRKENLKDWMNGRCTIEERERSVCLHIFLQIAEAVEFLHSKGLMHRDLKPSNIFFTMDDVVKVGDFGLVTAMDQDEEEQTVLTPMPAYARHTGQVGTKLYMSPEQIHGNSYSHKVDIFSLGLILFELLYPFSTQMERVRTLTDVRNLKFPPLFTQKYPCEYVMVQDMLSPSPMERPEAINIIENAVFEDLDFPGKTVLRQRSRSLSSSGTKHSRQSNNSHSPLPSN
Sequence of GCN2 kinase (Q9P2K8 whole entry): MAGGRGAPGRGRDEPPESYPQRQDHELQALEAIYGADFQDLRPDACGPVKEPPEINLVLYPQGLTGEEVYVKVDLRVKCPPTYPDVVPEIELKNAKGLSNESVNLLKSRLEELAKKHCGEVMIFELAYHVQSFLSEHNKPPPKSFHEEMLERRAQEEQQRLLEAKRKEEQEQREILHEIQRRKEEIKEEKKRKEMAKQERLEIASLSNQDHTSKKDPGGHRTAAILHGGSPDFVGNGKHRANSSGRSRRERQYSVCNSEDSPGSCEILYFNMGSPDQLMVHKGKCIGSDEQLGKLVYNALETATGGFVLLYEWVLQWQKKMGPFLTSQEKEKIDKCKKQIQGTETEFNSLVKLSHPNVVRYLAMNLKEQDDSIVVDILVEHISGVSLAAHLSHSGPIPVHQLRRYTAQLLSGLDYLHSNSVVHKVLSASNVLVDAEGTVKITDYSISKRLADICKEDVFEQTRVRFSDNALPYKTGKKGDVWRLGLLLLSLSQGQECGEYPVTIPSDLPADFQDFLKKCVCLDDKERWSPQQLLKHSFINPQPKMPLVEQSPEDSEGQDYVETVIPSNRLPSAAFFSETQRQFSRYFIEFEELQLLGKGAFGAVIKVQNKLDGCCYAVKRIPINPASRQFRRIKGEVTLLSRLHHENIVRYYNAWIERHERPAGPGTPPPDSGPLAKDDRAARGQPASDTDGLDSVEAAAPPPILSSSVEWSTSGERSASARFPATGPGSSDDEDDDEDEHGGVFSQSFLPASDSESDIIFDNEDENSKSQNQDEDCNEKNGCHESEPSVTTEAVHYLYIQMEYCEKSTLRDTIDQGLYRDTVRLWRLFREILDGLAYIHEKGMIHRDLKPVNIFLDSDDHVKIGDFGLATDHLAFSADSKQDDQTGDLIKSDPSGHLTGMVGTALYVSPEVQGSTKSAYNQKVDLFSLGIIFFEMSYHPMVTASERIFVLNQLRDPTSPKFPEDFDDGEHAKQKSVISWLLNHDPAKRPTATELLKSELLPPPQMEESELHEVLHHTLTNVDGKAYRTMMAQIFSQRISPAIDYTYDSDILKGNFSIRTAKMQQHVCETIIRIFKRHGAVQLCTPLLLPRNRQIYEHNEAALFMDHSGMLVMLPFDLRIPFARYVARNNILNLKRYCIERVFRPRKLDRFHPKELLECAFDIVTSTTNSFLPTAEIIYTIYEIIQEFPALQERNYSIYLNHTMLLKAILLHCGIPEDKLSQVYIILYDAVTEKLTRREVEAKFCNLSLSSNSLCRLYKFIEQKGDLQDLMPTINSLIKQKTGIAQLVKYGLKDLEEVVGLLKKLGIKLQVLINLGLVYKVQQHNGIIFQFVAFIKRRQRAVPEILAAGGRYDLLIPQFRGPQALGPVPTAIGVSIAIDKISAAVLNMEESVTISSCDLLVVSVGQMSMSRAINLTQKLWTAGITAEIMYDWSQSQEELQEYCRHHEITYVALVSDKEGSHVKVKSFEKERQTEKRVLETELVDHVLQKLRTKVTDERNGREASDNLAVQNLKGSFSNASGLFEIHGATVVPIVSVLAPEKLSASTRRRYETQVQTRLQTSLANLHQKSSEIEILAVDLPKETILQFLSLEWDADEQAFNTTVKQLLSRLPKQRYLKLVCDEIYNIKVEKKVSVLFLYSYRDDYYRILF

Row | SMILES | IC50 (GCN2 kinase) | IC50 (PERK enzyme) | IC50 (CCRF-CEM leukemia cells) | IC50 [1] | H929 NS ATF4 ELISA (ATF4 stim) [2]
1 | CC(=O)OCc1cc(Cl)cc(S(=O)(=O)Nc2cccc(-c3cn(C)c4ncnc(N)c34)c2F)c1Cl [Example 1, 3-(N-(3-(4-amino-7-methyl-7H-pyrrolo[2,3-d]pyrimidin-5-yl)-2-fluorophenyl)sulfamoyl)-2,5-dichlorobenzyl acetate] | 1000 to 10000 nM | ≤ 100 nM | 100 to 500 nM | 100 to 500 nM | –
2 | COCCn1cc(-c2cccc(NS(=O)(=O)c3cc(Cl)cc(CO)c3Cl)c2F)c2c(N)ncnc21 [Example 4] | ≤ 100 nM | ≤ 100 nM | ≤ 100 nM | ≤ 100 nM | +++ (an ATF4 stim greater than 10 fold and less than or equal to 20 fold)
3 | Cn1cc(-c2cccc(NS(=O)(=O)c3cccc(CO)c3Cl)c2F)c2c(N)ncnc21 [Example 5] | 1000 to 10000 nM | ≤ 100 nM | 1000 to 10000 nM | 100 to 500 nM | ++ (an ATF4 stim greater than 5-fold and less than or equal to 10 fold)
4 | Cn1cc(-c2cc(F)cc(NS(=O)(=O)c3cc(Cl)cc(CO)c3Cl)c2)c2c(N)ncnc21 [Example 6] | 100 to 500 nM | ≤ 100 nM | 500 to 1000 nM | 100 to 500 nM | –
5 | Cn1cc(-c2cc(NS(=O)(=O)c3cc(Cl)cc(CO)c3Cl)cc(F)c2F)c2c(N)ncnc21 [Example 7] | 100 to 500 nM | ≤ 100 nM | 500 to 1000 nM | 100 to 500 nM | –
6 | Nc1ncnc2c1c(-c1cccc(NS(=O)(=O)c3cc(Cl)cc(CO)c3Cl)c1F)cn2C1CC1 [Example 8] | ≤ 100 nM | ≤ 100 nM | ≤ 100 nM | ≤ 100 nM | +++ (an ATF4 stim greater than 10 fold and less than or equal to 20 fold)
7 | CC(=O)OCc1cc(Cl)cc(S(=O)(=O)Nc2cccc(-c3cn(C4COC4)c4ncnc(N)c34)c2F)c1Cl [Example 9] | 1000 to 10000 nM | ≤ 100 nM | 100 to 500 nM | ≤ 100 nM | –
8 | Nc1ncnc2c1c(-c1cccc(NS(=O)(=O)c3cc(Cl)cc(CO)c3Cl)c1F)cn2C1COC1 [Example 10] | ≤ 100 nM | ≤ 100 nM | ≤ 100 nM | ≤ 100 nM | +++ (an ATF4 stim greater than 10 fold and less than or equal to 20 fold)
9 | Nc1nccc2scc(-c3cccc(NS(=O)(=O)c4cc(Cl)cc(CO)c4Cl)c3F)c12 [Example 11] | 100 to 500 nM | – | 500 to 1000 nM | 1000 to 10000 nM | –
10 | Nc1nccc2occ(-c3cccc(NS(=O)(=O)c4cc(Cl)cc(CO)c4Cl)c3F)c12 [Example 12] | 100 to 500 nM | – | 1000 to 10000 nM | 1000 to 10000 nM | –
11 | CC(C)(C)n1cc(-c2cccc(NS(=O)(=O)c3cc(Cl)cc(CO)c3Cl)c2F)c2c(N)ncnc21 [Example 13] | 100 to 500 nM | ≤ 100 nM | 100 to 500 nM | 100 to 500 nM | –
12 | Nc1ncnc2c1c(-c1cccc(NS(=O)(=O)c3cc(Cl)cc(CO)c3Cl)c1F)cn2C1CCNCC1 [Example 15] | ≤ 100 nM | ≤ 100 nM | 100 to 500 nM | 500 to 1000 nM | –
